Experimental data taken from article PMC7011086 (Frontiers in Pharmacology, 2020).

Key:
washed platelets [1] = test: Flow cytometry: fibrinogen binding and P-selectin exposure; format: cell-based, human
Method: Whole blood was centrifuged at 250 × g for 10 min at 22°C to obtain PRP. To obtain washed platelets (WP), PRP was centrifuged twice (1,000 × g, 10 min, 20°C) in the presence of 1.25 μg/ml prostacyclin. The final platelet pellet was resuspended in modified Tyrode's-HEPES buffer, (20 mM N-2-hydroxyethylpiperazine-N'-2-ethanesulfonic acid, 5 mM glucose, 134 mM NaCl, 0.34 mM Na2HPO4, 2.9 mM KCl, 12 mM NaHCO3, and 1 mM MgCl2, pH 7.3) and rested for 30 min at 30°C before experiments. All protocols using human blood samples were approved by the Research Ethics Committees of the Federal University of […] and the University of Reading. WP (2-3 × 10^8 platelets/ml) were incubated with PESc at the same concentrations and conditions used for platelet aggregation experiments. Then WP were incubated for 10 min with thrombin (0.02 U/ml). FITC-conjugated PAC-1 antibody was added for 10 min in the dark and fluorescence read using a flow cytometer FACS Calibur (BD Biosciences, Franklin Lakes, USA). […] FITC-conjugated fibrinogen and PE/Cy5-conjugated anti-human CD62P were incubated for 30 min, then platelets were read after a 25-fold dilution with Tyrodes-HEPES buffer.

washed platelets [2] = test: Washed platelet aggregation (myricetin, gallic acid); format: cell-based, human; details: for inhibition of platelet aggregation (in words): 75-300 μM; for inhibition at 30 µM: Homo sapiens, Platelet
Method: Whole blood was centrifuged at 250 × g for 10 min at 22°C to obtain PRP. To obtain washed platelets (WP), PRP was centrifuged twice (1,000 × g, 10 min, 20°C) in the presence of 1.25 μg/ml prostacyclin. The final platelet pellet was resuspended in modified Tyrode's-HEPES buffer, (20 mM N-2-hydroxyethylpiperazine-N'-2-ethanesulfonic acid, 5 mM glucose, 134 mM NaCl, 0.34 mM Na2HPO4, 2.9 mM KCl, 12 mM NaHCO3, and 1 mM MgCl2, pH 7.3) and rested for 30 min at 30°C before experiments. All protocols using human blood samples were approved by the Research Ethics Committees of the Federal University of […] and the University of Reading. PRP and WP aggregation assays were performed in a four-channel aggregometer (Helena Biosciences, […], England). […] Aggregation traces from at least three different donors were recorded for 5 min.

[3] = set-up: method as in Dang et al., 2014; details: rats, single oral dose of 100 mg/kg; ref Dang et al., 2014; cited from earlier work
recombinant PDI [4] = target: T1, recombinant PDI (Homo sapiens, UniProt P07237); test: Reductase activity (Di-E-GssG), PDI; format: biochemical; details: PDI 2 µM, myricetin 0.01–10 µM, Di-E-GssG probe
T1 sequence (P07237 18-508): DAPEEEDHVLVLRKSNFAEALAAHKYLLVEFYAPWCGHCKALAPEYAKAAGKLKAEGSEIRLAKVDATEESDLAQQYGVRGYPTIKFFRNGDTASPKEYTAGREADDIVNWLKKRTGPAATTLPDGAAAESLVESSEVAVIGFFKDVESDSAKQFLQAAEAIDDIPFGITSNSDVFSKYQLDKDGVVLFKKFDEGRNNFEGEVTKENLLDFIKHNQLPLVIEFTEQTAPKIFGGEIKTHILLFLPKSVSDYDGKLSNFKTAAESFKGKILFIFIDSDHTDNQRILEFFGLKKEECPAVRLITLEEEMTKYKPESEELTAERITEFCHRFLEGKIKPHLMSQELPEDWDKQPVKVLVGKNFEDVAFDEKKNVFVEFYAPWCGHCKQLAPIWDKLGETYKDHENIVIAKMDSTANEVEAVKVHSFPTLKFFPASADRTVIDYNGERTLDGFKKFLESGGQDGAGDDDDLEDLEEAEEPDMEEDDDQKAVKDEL

recombinant ERp5 [5] = target: T2, recombinant ERp5 (Homo sapiens, UniProt Q15084); details: ERp5 2 µM, myricetin 0.01–10 µM, Mean ± SEM
T2 sequence (Q15084 20-440): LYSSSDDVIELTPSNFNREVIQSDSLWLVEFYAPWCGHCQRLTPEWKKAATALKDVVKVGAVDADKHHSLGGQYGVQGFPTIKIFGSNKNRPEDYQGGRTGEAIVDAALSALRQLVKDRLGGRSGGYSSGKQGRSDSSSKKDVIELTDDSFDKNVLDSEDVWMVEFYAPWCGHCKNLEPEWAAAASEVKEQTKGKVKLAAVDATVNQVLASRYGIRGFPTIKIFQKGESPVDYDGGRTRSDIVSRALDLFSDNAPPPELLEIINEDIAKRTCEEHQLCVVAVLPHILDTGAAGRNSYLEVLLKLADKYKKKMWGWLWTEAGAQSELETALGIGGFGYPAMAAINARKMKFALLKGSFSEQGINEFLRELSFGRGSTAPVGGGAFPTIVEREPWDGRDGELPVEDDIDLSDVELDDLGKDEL

recombinant PDI [6] = target: T1, recombinant PDI; test: biochemical
VASP (Ser239) = VASP (Ser239) phosphorylation immunoblotting; format: cell-based, human; details: resting washed platelets, 7.5, 15 and 30 μM, 10 min
Method: After protein separation, semi-dry transfer was performed at 15V for 2 h using a BioRad Trans-blot semidry blotter. Membranes were blocked with 5% bovine serum albumin (BSA) for 1 h and incubated with primary antibodies against VASP ([…]) or GAPDH at 1:1,000 v/v dilution overnight. After washing the primary antibody off, […] secondary antibody was incubated for 1 h at room temperature at 1:4,000 v/v dilution. Membranes were visualized using a Typhoon imaging system (GE Healthcare, Hatfield, UK).

recombinant PDI [7] = target: T1, recombinant PDI; details: Kq=KSV/τ0, τ0 10^-8 s
washed platelets [8] = test: Platelet spreading on collagen or fibrinogen; format: cell-based, human
Method: Non-adhered platelets were removed and the coverslip washed three times with PBS. Adhered platelets were fixed using 0.2% paraformaldehyde for 10 min. This solution was then removed and coverslips washed three times with PBS before the addition of 0.1% (v/v) Triton-X to permeabilize the cells. […] Coverslips were mounted onto microscope glass slides and imaged using a 100× oil immersion lens on a Nikon A1-R Confocal microscope.

[9] = tested on: whole blood on collagen-coated Vena8 bio-chips; test: Thrombus formation under flow; format: cell-based, human; details: 30 µM, shear rate 45 dyn/cm^2, 10 min
Method: Fluorescence intensity was calculated using NIS Elements Software (Nikon, Tokyo, Japan).

recombinant ERp5 [10] = target: T2, recombinant ERp5; test: biochemical
recombinant ERp5 [11] = target: T2, recombinant ERp5; test: Reductase activity (Di-E-GssG), ERp5; format: biochemical; details: ERp5 2 µM, myricetin 0.01–10 µM, Di-E-GssG probe
recombinant ERp72 = target: T3, recombinant ERp72 (Homo sapiens, UniProt P13667); test: Protein fluorescence quenching, ERp72; format: binding
T3 sequence (P13667 21-645): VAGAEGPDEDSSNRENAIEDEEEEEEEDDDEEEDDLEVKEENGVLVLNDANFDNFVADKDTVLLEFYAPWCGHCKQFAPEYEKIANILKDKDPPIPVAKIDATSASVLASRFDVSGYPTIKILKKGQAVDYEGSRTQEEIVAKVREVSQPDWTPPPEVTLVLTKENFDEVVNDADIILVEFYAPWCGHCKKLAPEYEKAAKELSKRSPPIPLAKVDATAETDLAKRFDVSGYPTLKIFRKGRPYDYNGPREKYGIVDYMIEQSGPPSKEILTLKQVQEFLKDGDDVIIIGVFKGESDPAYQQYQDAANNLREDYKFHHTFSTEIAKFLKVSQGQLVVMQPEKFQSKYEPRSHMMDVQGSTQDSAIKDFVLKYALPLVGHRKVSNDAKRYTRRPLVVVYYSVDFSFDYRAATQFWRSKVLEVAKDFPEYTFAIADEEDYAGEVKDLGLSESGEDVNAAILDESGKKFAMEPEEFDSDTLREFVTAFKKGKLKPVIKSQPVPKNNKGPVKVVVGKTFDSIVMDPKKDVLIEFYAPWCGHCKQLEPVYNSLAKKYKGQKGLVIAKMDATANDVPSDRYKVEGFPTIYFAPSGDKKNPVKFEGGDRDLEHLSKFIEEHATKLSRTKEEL

recombinant ERp57 = target: T4, recombinant ERp57 (Homo sapiens, UniProt P30101); test: biochemical
T4 sequence (P30101 25-505): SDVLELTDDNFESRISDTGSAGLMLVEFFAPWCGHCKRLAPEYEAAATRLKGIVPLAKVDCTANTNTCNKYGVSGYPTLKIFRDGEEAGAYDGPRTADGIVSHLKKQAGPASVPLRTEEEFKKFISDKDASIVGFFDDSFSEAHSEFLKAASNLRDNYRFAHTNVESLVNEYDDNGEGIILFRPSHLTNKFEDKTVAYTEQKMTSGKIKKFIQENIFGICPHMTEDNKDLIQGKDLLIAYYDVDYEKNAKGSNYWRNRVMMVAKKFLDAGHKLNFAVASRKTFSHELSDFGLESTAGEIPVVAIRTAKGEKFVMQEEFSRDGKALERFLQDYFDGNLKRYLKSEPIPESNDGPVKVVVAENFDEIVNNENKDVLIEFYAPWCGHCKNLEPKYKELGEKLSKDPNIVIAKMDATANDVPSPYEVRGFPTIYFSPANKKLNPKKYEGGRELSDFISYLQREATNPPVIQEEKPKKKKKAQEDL

PDI = details: insulin turbidimetry, cited from earlier work; for inhibition of PDI (in words): ref Jasuja et al., 2012

Compound: O=C(O)c1cc(O)c(O)c(O)c1 [Gallic acid, gallic acid]
- fibrinogen binding (in words) (washed platelets [1]; CRP-activated washed platelets, 150 μM): only able to reduce fibrinogen binding when incubated at 150 μM
- inhibition of platelet aggregation (in words) (washed platelets [2]; TRAP-6-induced): unable to inhibit platelet aggregation, except at the higher concentration used (300 μM)
- inhibition of platelet aggregation (in words) (washed platelets [2]; collagen-induced): unable to inhibit platelet aggregation

Compound: O=c1c(O)c(-c2cc(O)c(O)c(O)c2)oc2cc(O)cc(O)c12 [Myricetin]
- peak plasma concentration [3]: 10 µM
- inhibition of reductase activity (in words) (recombinant PDI [4]): inhibit both PDI and ERp5, being more potent against PDI
- fibrinogen binding (in words) (washed platelets [1]; CRP-activated washed platelets, 15 μM): abolish
- fibrinogen binding (in words) (washed platelets [1]; TRAP-6-activated washed platelets): still inhibited fibrinogen binding
- inhibition at 30 µM (washed platelets [2]; TRAP-6-induced): ~60%
- inhibition at 30 µM (washed platelets [2]; collagen-induced): ~80%
- K SV (Stern-Volmer constant) (recombinant ERp5 [5]): 48,750 ± 9,554 M^-1
- Kd (recombinant PDI [6]): 4260 nM
- VASP phosphorylation (in words) (VASP (Ser239)): did not induce VASP phosphorylation
- Kq (quenching rate constant) (recombinant PDI [7]): 2.12e+12 M⁻¹ s⁻¹
- inhibition at 30 µM (washed platelets [8]; Homo sapiens, Platelet, collagen-coated coverslips, 30 μM): ~25%
- platelet spreading (in words) (washed platelets [8]; fibrinogen-coated coverslips, 7.5-30 μM): no effect
- thrombus formation (fluorescence intensity) (in words) [9]: decreased thrombus formation
- Kd (recombinant ERp5 [10]): 1740 nM
- inhibition of reductase activity (in words) (recombinant ERp5 [11]): inhibit both PDI and ERp5
- K SV (Stern-Volmer constant) (recombinant ERp72; ERp72 2 µM, myricetin 0.01–10 µM, Mean ± SEM): 27,515 ± 5,675 M^-1
- Kq (quenching rate constant) (recombinant ERp72; ERp72, Kq=KSV/τ0, τ0 10^-8 s): 2.75e+12 M⁻¹ s⁻¹
- K b (binding constant) (recombinant ERp72; ERp72, determined for highest concentration tested): 394000 M⁻¹
- Kd (recombinant ERp72; read-out: K d (dissociation constant)): 2530 nM
- Kd (recombinant ERp57): 1830 nM

Compound: O=c1c(O)c(-c2ccc(O)c(O)c2)oc2cc(O)cc(O)c12 [Quercetin, quercetin]
- inhibition of PDI (in words) (PDI): weak inhibitor of PDI

Compound: O=c1c(O[C@@H]2O[C@H](CO)[C@@H](O)[C@H](O)[C@H]2O)c(-c2ccc(O)c(O)c2)oc2cc(O)cc(O)c12 [isoquercetin]
- inhibition of PDI reductase activity (in words) (PDI; ref Stopa et al., 2017): potent inhibitors of PDI reductase activity

Compound: C[C@@H]1O[C@@H](OC[C@H]2O[C@@H](Oc3c(-c4ccc(O)c(O)c4)oc4cc(O)cc(O)c4c3=O)[C@H](O)[C@@H](O)[C@@H]2O)[C@H](O)[C@H](O)[C@H]1O [rutin]
- inhibition of PDI (in words) (PDI): potent inhibitors of PDI reductase activity
